According to publication PMC5041959, “A high-content EMT screen identifies multiple receptor tyrosine kinase inhibitors with activity on TGFβ receptor” (Oncotarget, 2016):
Read-outs that look alike come from different tables or passages of the source.

Key:
[1] = cited from earlier work
[2] = cited from earlier work; remark: listed apart in the source
NMuMG cells [3] = test: High-content microscopy EMT screen in TGFβ-treated NMuMG cells (FA, SF, FN, cell count); type: cell-based, murine
SRC = SRC (Homo sapiens, UniProt P12931); test: Biochemical kinase profiling (33PanQinase radiometric assay)
Chain of SRC (P12931 whole entry): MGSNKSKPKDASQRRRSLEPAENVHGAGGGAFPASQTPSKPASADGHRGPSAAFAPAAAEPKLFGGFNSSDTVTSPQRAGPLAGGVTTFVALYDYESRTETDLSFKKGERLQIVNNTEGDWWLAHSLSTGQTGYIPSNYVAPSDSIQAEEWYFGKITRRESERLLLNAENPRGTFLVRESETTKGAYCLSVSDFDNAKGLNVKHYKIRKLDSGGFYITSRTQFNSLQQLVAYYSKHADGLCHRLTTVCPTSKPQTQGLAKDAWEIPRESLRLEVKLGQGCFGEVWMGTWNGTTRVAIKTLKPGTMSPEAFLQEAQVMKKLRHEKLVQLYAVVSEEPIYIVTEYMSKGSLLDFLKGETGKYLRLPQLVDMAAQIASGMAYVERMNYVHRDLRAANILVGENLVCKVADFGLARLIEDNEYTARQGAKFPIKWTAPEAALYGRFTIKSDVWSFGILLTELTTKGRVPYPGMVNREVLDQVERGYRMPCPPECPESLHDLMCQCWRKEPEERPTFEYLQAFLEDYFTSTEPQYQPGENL

EGFR = EGFR (Homo sapiens, UniProt P00533); test: as above
Chain of EGFR (P00533 25-1210): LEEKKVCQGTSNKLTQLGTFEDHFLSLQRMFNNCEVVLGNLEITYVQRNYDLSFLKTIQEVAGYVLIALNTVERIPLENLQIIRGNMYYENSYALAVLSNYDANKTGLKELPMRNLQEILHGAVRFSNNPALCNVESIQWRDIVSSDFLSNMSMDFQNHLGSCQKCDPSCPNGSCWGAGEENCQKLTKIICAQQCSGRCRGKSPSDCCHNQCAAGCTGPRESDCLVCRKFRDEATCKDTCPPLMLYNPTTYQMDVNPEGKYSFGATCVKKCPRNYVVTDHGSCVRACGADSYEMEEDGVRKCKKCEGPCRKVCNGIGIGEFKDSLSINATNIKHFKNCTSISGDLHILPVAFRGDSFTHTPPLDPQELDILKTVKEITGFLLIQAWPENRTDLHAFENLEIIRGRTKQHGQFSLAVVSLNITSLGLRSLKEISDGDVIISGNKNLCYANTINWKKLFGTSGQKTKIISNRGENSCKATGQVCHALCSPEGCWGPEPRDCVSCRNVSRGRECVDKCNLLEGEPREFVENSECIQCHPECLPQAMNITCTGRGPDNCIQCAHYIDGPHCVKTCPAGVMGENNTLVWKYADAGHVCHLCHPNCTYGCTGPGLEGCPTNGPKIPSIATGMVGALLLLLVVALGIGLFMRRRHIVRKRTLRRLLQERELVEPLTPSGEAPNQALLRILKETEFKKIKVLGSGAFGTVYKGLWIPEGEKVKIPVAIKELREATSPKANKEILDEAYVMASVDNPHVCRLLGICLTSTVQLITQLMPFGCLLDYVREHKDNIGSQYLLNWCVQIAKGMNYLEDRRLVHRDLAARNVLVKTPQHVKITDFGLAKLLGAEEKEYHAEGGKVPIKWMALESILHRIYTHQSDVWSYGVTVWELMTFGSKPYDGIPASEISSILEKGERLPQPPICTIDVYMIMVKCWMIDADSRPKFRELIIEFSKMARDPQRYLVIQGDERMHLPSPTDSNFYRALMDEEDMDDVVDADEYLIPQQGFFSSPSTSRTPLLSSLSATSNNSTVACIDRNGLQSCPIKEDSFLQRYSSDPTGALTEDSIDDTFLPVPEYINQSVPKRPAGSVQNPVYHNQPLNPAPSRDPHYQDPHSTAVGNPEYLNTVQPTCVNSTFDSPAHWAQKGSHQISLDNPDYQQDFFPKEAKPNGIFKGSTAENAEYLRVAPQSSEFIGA

PDGFRA = PDGFRA (Homo sapiens, UniProt P16234); test: as above
FGFR3 = FGFR3 (Homo sapiens, UniProt P22607); test: as above
FGFR1 = FGFR1 (Homo sapiens, UniProt P11362); test: as above
Chain of FGFR1 (P11362 22-822): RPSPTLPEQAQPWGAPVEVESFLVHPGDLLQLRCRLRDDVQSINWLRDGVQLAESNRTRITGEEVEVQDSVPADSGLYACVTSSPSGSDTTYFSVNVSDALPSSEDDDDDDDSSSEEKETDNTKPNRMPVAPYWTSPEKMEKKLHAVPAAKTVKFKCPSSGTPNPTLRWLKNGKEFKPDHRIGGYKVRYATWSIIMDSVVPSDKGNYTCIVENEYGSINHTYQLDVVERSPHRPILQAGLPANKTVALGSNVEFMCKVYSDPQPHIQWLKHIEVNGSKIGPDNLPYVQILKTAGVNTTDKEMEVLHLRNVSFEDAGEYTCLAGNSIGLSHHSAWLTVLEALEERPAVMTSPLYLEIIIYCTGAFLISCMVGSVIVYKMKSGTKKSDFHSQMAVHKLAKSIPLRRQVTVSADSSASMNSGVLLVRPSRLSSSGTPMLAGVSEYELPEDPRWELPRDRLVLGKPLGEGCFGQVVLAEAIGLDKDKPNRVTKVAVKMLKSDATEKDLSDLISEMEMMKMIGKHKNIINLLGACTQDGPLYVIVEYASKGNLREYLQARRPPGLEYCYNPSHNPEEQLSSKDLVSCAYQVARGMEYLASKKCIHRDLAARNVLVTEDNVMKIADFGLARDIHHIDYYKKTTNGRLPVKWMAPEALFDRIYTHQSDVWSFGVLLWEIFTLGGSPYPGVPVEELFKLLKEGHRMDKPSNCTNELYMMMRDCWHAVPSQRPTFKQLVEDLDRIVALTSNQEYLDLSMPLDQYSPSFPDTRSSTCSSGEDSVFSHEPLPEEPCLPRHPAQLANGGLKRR

c-KIT = biological target: T1, c-KIT (Homo sapiens, UniProt P10721); test: as above; settings: ATP at apparent Km
T1 construct: purchased ProQinase (Freiburg, Germany)

TGFBR2 = TGFBR2 (Homo sapiens, UniProt P37173); test: as above; settings: read-out: TGFBR2 IC50; ATP at apparent Km
Chain of TGFBR2 (P37173 23-567): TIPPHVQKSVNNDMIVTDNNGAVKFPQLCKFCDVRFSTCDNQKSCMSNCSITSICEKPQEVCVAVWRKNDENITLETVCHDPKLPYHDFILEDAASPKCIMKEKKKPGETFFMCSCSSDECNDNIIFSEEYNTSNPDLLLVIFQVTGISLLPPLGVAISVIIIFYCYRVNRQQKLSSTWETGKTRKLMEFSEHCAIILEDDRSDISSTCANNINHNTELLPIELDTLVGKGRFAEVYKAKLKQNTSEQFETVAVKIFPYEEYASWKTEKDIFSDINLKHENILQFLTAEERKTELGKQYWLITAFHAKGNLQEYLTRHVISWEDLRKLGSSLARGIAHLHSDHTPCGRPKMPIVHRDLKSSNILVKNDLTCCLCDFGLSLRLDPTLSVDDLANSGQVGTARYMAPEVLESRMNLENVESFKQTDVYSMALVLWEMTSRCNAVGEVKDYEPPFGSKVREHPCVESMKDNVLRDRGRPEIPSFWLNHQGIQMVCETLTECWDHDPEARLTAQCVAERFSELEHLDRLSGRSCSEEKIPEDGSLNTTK

FGFR4 = FGFR4 (Homo sapiens, UniProt P22455); test: as above
FGFR2 = FGFR2 (Homo sapiens, UniProt P21802); test: as above
Chain of FGFR2 (P21802 22-821): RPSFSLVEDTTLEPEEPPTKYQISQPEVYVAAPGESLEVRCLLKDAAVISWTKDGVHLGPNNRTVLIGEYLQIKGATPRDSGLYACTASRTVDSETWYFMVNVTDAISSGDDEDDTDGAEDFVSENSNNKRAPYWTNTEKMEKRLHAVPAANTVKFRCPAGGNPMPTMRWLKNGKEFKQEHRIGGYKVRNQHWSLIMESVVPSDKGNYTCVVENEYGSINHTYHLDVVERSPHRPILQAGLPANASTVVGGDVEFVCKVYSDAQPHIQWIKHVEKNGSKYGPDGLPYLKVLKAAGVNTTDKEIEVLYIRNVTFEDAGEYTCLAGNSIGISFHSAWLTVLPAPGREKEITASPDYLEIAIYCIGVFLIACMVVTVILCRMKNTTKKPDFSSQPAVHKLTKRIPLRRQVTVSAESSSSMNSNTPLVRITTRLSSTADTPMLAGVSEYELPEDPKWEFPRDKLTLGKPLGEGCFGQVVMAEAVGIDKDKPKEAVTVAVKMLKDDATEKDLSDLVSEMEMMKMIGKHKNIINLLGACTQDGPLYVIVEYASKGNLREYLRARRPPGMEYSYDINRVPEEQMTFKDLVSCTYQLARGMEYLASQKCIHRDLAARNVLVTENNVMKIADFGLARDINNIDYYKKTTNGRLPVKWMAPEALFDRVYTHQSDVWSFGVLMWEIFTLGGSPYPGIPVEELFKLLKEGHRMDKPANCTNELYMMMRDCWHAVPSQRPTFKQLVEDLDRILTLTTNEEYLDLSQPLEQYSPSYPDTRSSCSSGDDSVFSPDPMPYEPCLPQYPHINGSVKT

VEGFR1 = biological target: T2, VEGFR1 (Homo sapiens, UniProt P17948); test: as above; settings: ATP at apparent Km
T2 construct: purchased ProQinase (Freiburg, Germany)

VEGFR3 = biological target: T3, VEGFR3 (Homo sapiens, UniProt P35916); test: as above; settings: ATP at apparent Km
T3 construct: purchased ProQinase (Freiburg, Germany)

PDGFRB = PDGFRB (Homo sapiens, UniProt P09619); test: as above
Chain of PDGFRB (P09619 33-1106): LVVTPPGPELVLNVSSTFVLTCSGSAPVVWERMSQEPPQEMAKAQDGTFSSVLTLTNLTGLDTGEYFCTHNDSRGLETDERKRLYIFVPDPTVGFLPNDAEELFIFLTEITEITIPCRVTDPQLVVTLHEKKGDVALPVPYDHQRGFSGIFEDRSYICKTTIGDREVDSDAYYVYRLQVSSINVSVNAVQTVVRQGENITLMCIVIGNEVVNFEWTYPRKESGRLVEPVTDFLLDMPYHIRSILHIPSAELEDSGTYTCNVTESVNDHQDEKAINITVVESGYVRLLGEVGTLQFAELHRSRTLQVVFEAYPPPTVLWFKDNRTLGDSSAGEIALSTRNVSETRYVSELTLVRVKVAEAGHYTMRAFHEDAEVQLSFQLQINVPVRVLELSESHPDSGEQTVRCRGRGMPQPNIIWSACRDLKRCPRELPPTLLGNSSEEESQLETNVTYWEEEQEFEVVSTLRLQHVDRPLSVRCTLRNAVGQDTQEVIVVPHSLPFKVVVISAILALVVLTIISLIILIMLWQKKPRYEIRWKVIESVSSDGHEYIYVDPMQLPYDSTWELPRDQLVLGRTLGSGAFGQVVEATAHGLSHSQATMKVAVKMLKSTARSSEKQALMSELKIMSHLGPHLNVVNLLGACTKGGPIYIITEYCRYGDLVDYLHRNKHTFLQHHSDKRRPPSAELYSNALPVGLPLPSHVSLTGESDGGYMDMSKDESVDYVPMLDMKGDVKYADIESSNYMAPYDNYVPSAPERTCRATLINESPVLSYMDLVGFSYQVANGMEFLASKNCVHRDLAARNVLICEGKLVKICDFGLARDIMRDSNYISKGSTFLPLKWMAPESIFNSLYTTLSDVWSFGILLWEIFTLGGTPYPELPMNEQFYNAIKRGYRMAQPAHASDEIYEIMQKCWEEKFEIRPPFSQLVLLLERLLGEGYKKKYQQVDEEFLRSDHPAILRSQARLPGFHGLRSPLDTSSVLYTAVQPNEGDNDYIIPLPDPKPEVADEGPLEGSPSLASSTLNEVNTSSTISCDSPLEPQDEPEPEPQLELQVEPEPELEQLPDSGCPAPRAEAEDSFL

NMuMG cells [4] = test: E-cadherin, ZO1 and vimentin immunofluorescence in TGFβ-treated NMuMG cells; type: cell-based, murine; settings: four days TGFβ plus inhibitor
Protocol: NMuMG and Py2T cells were trypsinized, washed, seeded at 1000 cells/well, resuspended in 40 μl growth medium with a Multidrop-384 (Titertek) in 384-well microplates (Greiner, 781091), and grown overnight at 37°C, 5% CO2. The next day, 111 μl growth medium was added with the Multidrop-384 to 1 μl of the 2 mM library compounds of which 10 μl was transferred with a 384-well pipettor (VPrep, Agilent, US) to the cell assay plate and equilibrated for 10 min (final compound concentration 3 μM). For screenings at 300 nM or 30 nM, the compounds were diluted 1:10 or 1:100 in growth medium, respectively, before use. […]
Cells were imaged using the automated epifluorescence microscope ImageXpress Micro from Molecular Devices (Sunnyvale CA, USA) equipped with a plate-loading robot (CRS Catalyst, Thermo Scientific). […] The images were automatically analyzed by MetaXpress and segmented into sub-cellular structures based on morphological features such as object size and fluorescence distribution. Fluorescence distribution was a measure of the threshold intensity above local background and was adjusted for all parameters (nuclei, FA, SF and FN) by means of the respective positive and negative controls to compensate for inter-experimental variations between the different screening batches. […] Vimentin was quantified similar to SF and FN using the Angiogenesis module. […]

[5] = system: SMAD3 phosphorylation (TGFBR activity); test: Quantification of SMAD3 phosphorylation in TGFβ-treated NMuMG cells (immunoblot, LI-COR); type: cell-based, murine; settings: one day TGFβ plus inhibitor
Protocol: NMuMG cells plated the day before were treated for one day with TGFβ and DMSO or an inhibitor as described in the figure legends. Cells were washed with PBS and lyzed in RIPA buffer (150 mM NaCl, 2 mM MgCl, 2 mM CaCl2, 0.5% Na-deoxycholate, 10% glycerol, 1% NP-40, 0.1% SDS, 50 mM Tris pH8 supplementary with 1 mM DTT, 10 mM NaF, 1 mM sodium orthovanadate and protease inhibitor cocktail (Roche)). The proteins were resolved using SDS-PAGE and transferred to PVDF membrane. For quantitative analysis of SMAD phosphorylation, the membrane was probed with p-SMAD2/3 and GAPDH specific primary antibodies followed by fluorescent secondary antibodies (LI-COR Biosciences). The signal was captured and quantified with the Odyssey CLx Imaging system and ImageJ software form 3 independent experiments.

Py2T cells = test: High-content microscopy EMT assay in TGFβ-treated Py2T breast cancer cells; type: cell-based, murine; settings: Mus musculus
[6] = Mus musculus, 96 h; NMuMG, TGFβ1 2 ng/ml plus compound, 4 days; parameter decreased by 50%; read-out: FA IC50 (focal adhesion formation)
[7] = Mus musculus, 96 h; NMuMG, TGFβ1 2 ng/ml plus compound, 4 days; parameter decreased by 50%; read-out: FN IC50 (fibronectin patch formation)
[8] = Mus musculus, 96 h; NMuMG, TGFβ1 2 ng/ml plus compound, 4 days; parameter decreased by 50%; read-out: SF IC50 (stress fibers)
[9] = Mus musculus; NMuMG; cell count decreased by 50% compared to DMSO control; read-out: Tox IC50
[10] = Mus musculus; NMuMG; mean of IC50 values obtained for FA, SF, FN; read-out: EMT (FA/SF/FN) combined IC50
[11] = Mus musculus; read-out: CCI IC50 (cell count increase)
[12] = Mus musculus; read-out: Emax (maximal effect on cell count)

## Cc1ccc(Nc2nccc(N(C)c3ccc4c(C)n(C)nc4c3)n2)cc1S(N)(=O)=O [Pazopanib]
[1]
  steady state blood levels required to be active in patients: at least 40 μM
[2]
  plasma protein binding: above 99.9%
NMuMG cells [3]; [6]
  IC50: 8030 nM
NMuMG cells [3]; [7]
  IC50: 3950 nM
NMuMG cells [3]; [8]
  IC50: 7300 nM
NMuMG cells [3]; Mus musculus, combined FA/SF/FN; read-out: IC50 for blocking EMT in NMuMG cells
  IC50: 6400 nM
NMuMG cells [3]; [9]
  IC50: 15700 nM
NMuMG cells [3]; [10]
  IC50: 6430 nM
NMuMG cells [3]; [11]
  IC50: 1080 nM
NMuMG cells [3]; [12]
  Emax: 17.6%

## Cc1cccc(-c2[nH]ncc2-c2ccc3ncccc3n2)n1 [RepSox]
SRC; read-out: SRC IC50, ATP at apparent Km
  IC50: 6100 nM
EGFR; read-out: EGFR IC50, ATP at apparent Km
  IC50: > 10000 nM
PDGFRA; read-out: PDGFRA IC50, ATP at apparent Km
  IC50: > 10000 nM
FGFR3; read-out: FGFR3 IC50, ATP at apparent Km
  IC50: > 10000 nM
FGFR1; read-out: FGFR1 IC50, ATP at apparent Km
  IC50: > 10000 nM
c-KIT
  IC50: 5240 nM
TGFBR2
  IC50: 3070 nM
NMuMG cells [3]; NMuMG, TGFβ1 2 ng/ml plus compound, 4 days; parameter decreased by 50%; read-out: FA IC50 (focal adhesion formation)
  IC50: 47 nM
NMuMG cells [3]; NMuMG, TGFβ1 2 ng/ml plus compound, 4 days; parameter decreased by 50%; read-out: FN IC50 (fibronectin patch formation)
  IC50: 44 nM
NMuMG cells [3]; NMuMG, TGFβ1 2 ng/ml plus compound, 4 days; parameter decreased by 50%; read-out: SF IC50 (stress fibers)
  IC50: 55 nM
NMuMG cells [3]; NMuMG; cell count decreased by 50% compared to DMSO control; read-out: Tox IC50
  IC50: > 3000 nM
NMuMG cells [3]; NMuMG; cell count increased by 50% compared to 100% with 10 μM SB-431542; read-out: CCI IC50 (cell count increase)
  IC50: 88 nM
NMuMG cells [3]; NMuMG; compared to reference 10 μM SB-431542 = 100%
  Emax (maximal effect on cell count): 100%
NMuMG cells [3]; NMuMG; mean of IC50 values obtained for FA, SF, FN; read-out: EMT (FA/SF/FN) combined IC50
  IC50: 48.7 nM
FGFR4; read-out: FGFR4 IC50, ATP at apparent Km
  IC50: > 10000 nM
FGFR2; read-out: FGFR2 IC50, ATP at apparent Km
  IC50: 4760 nM
VEGFR1
  IC50: 1080 nM
VEGFR3
  IC50: 1640 nM
PDGFRB; read-out: PDGFRB IC50, ATP at apparent Km
  IC50: 4370 nM

## NC(=O)c1ccc(-c2nc(-c3ccc4c(c3)OCO4)c(-c3ccccn3)[nH]2)cc1 [SB-431542]
NMuMG cells [4]
  effect on TGFβ-induced loss of E-cadherin and ZO1 from junctions and vimentin filament formation: completely blocked
SRC
  IC50: > 10000 nM
EGFR
  IC50: > 10000 nM
PDGFRA
  IC50: > 10000 nM
FGFR3
  IC50: > 10000 nM
FGFR1
  IC50: > 10000 nM
[5]
  SMAD3 phosphorylation (p-SMAD3/GAPDH): blocked
NMuMG cells [3]; [6]
  IC50: 243 nM
NMuMG cells [3]; [7]
  IC50: 195 nM
NMuMG cells [3]; [8]
  IC50: 184 nM
NMuMG cells [3]; Mus musculus; NMuMG, TGFβ treatment, proof of concept; read-out: IC50 in all three parameters (focal adhesion formation, stress fibers, fibronectin deposition)
  IC50: ~200 nM
NMuMG cells [3]; [9]
  IC50: > 25000 nM
NMuMG cells [3]; [10]
  IC50: 388 nM
NMuMG cells [3]; [11]
  IC50: 584 nM
NMuMG cells [3]; [12]
  Emax: 100%
FGFR4
  IC50: > 10000 nM
FGFR2
  IC50: > 10000 nM
PDGFRB
  IC50: > 10000 nM
Py2T cells; 96 h, Py2T, TGFβ plus compound, 4 days, read-out: FA IC50 (focal adhesions)
  IC50: 156 nM
Py2T cells; 96 h, Py2T, TGFβ plus compound, 4 days, read-out: FN IC50 (fibronectin patches)
  IC50: 167 nM
Py2T cells; 96 h, Py2T, TGFβ plus compound, 4 days, read-out: SF IC50 (stress fibers)
  IC50: 175 nM
Py2T cells; Py2T, TGFβ-induced EMT, read-out: IC50 for reduction of EMT markers
  IC50: ~200 nM
Py2T cells; Py2T, cell count decreased by 50% compared to DMSO control, read-out: Tox IC50
  IC50: 7460 nM
Py2T cells; read-out: CCI IC50 (cell count increase)
  IC50: 140 nM
Py2T cells; read-out: Emax (maximal effect on cell count)
  Emax: 100%

## CNC(=O)c1cc(Oc2ccc(NC(=O)Nc3ccc(Cl)c(C(F)(F)F)c3)cc2)ccn1 [Sorafenib]
NMuMG cells [4]
  effect on TGFβ-induced loss of E-cadherin and ZO1 from junctions and vimentin filament formation: only marginally stabilized
[2]
  plasma protein binding: 99.7%
NMuMG cells [3]; Mus musculus, 96 h, read-out: FA IC50 (focal adhesion formation)
  IC50: 2090 nM
NMuMG cells [3]; Mus musculus, 96 h, read-out: FN IC50 (fibronectin patch formation)
  IC50: 1350 nM
NMuMG cells [3]; Mus musculus, 96 h, read-out: SF IC50 (stress fibers)
  IC50: 3930 nM
NMuMG cells [3]; Mus musculus, read-out: CCI IC50 (cell count increase)
  IC50: 103 nM
NMuMG cells [3]; Mus musculus, read-out: EMT (FA/SF/FN) combined IC50
  IC50: 2460 nM
NMuMG cells [3]; Mus musculus, read-out: Emax (maximal effect on cell count)
  Emax: 17.5%
NMuMG cells [3]; Mus musculus, read-out: Tox IC50
  IC50: 12600 nM
